“And” between values parts separate entries of the source, which are not always exact repeats. Equal entries are not always repeated. Inconclusive results and toxic doses are left out.
Test system: P388 leukemia ip, CD2F1 mice, survival T/C
Experiment: NCI In Vivo Anticancer Drug Screen. Data for tumor model P388 Leukemia (intraperitoneal) in CD2F1 (CDF1) mice
Conditions: endpoint: median survival time, higher = longer survival
How it was run: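 Mice carrying the transplanted tumor received test compound or vehicle. Survival was recorded in each group, and the value is the treated-group measurement divided by that of the vehicle-treated control group.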

[1] = dose: 60.0 mg/kg/injection, schedule: Q01DX005 (ip), vehicle: saline
[2] = dose: 120.0 mg/kg/injection, schedule: Q01DX005 (ip), vehicle: saline
[3] = dose: 240.0 mg/kg/injection, schedule: Q01DX005 (ip), vehicle: saline
[4] = dose: 50.0 mg/kg/injection, schedule: Q01DX009 (ip), vehicle: Klucel (hydroxypropylcellulose) (HPC)
[5] = dose: 100.0 mg/kg/injection, schedule: Q01DX009 (ip), vehicle: Klucel (hydroxypropylcellulose) (HPC)
[6] = dose: 50.0 mg/kg/injection, schedule: Q01DX005 (ip), vehicle: Klucel (hydroxypropylcellulose) (HPC)
[7] = dose: 100.0 mg/kg/injection, schedule: Q01DX005 (ip), vehicle: Klucel (hydroxypropylcellulose) (HPC)
[8] = dose: 200.0 mg/kg/injection, schedule: Q01DX005 (ip), vehicle: Klucel (hydroxypropylcellulose) (HPC)
[9] = dose: 60.0 mg/kg/injection, schedule: Q01DX005 (ip), vehicle: saline with Tween-80
[10] = dose: 120.0 mg/kg/injection, schedule: Q01DX005 (ip), vehicle: saline with Tween-80
[11] = dose: 50.0 mg/kg/injection, schedule: Q01DX009 (ip), vehicle: saline
[12] = dose: 200.0 mg/kg/injection, schedule: Q01DX009 (ip), vehicle: Klucel (hydroxypropylcellulose) (HPC)

With `CC1(C)C(=O)C(/C=C\c2ccccc2[N+](=O)[O-])Cc2ccccc21` (stereo not drawn) the T/C (dose: 100.0 mg/kg/injection, schedule: Q01DX001 (ip), vehicle: Klucel (hydroxypropylcellulose) (HPC)) was 100 % of control, the T/C (dose: 200.0 mg/kg/injection, schedule: Q01DX001 (ip), vehicle: Klucel (hydroxypropylcellulose) (HPC)) was 99 % of control and the T/C (dose: 400.0 mg/kg/injection, schedule: Q01DX001 (ip), vehicle: Klucel (hydroxypropylcellulose) (HPC)) was 100 % of control.

`CC(=O)O[C@@H]1[C@H](C)[C@@H]2CC(=O)O[C@@H]3[C@H](OC(=O)C=C(C)C)[C@H]4C(C)=CC(=O)[C@@H](OC(C)=O)[C@]4(C)[C@H]4[C@@]1(O)OC[C@@]342` was tested, and the T/C (dose: 1.25 mg/kg/injection, schedule: Q01DX009 (ip), vehicle: Klucel (hydroxypropylcellulose) (HPC)) was 104 % of control, the T/C (dose: 2.5 mg/kg/injection, schedule: Q01DX009 (ip), vehicle: Klucel (hydroxypropylcellulose) (HPC)) was 107 % of control and the T/C (dose: 5.0 mg/kg/injection, schedule: Q01DX009 (ip), vehicle: Klucel (hydroxypropylcellulose) (HPC)) was 107 % of control. For the same molecule, the T/C (dose: 10.0 mg/kg/injection, schedule: Q01DX009 (ip), vehicle: Klucel (hydroxypropylcellulose) (HPC)) was 107 % of control.

For `N[C@H]1CCC[C@@H](O)C1O` (stereo partly drawn), the T/C [1] was 103 % of control, the T/C [2] was 100 % of control and the T/C [3] was 109 % of control.

For `O=C1CCC2CCCCC2N1` (stereo not drawn), the T/C [4] was 94 % of control and the T/C [5] was 86 % of control.

In the case of `CSC1=Nc2ccccc2SC(c2ccccc2)C1c1ccccc1` (stereo not drawn), the T/C [6] is reported as 99 % of control, the T/C [7] is reported as 95 % of control and the T/C [8] is reported as 96 % of control.

In the case of `NC(Cc1ccccc1)C(=O)Nc1ccncc1` (stereo not drawn), the T/C (dose: 12.5 mg/kg/injection, schedule: Q01DX001 (ip), vehicle: saline) is reported as 105 % of control, the T/C (dose: 25.0 mg/kg/injection, schedule: Q01DX001 (ip), vehicle: saline) is reported as 106 % of control and the T/C (dose: 50.0 mg/kg/injection, schedule: Q01DX001 (ip), vehicle: saline) is reported as 103 % of control.

In the case of `CCN(CC)c1ccc(CCc2ccc(N(CC)CC)c3cccnc23)c2ncccc12`, the T/C [6] is reported as 99 % of control, the T/C [7] is reported as 112 % of control and the T/C [8] is reported as 94 % of control.

With `COc1cc(OC(C)C)cc2c1C(=O)C(C(O)(O)C(F)(F)F)=CC2=O` the T/C (dose: 15.0 mg/kg/injection, schedule: Q01DX005 (ip), vehicle: Klucel (hydroxypropylcellulose) (HPC)) was 109 % of control, the T/C (dose: 30.0 mg/kg/injection, schedule: Q01DX005 (ip), vehicle: Klucel (hydroxypropylcellulose) (HPC)) was 103 % of control and the T/C (dose: 60.0 mg/kg/injection, schedule: Q01DX005 (ip), vehicle: Klucel (hydroxypropylcellulose) (HPC)) was 99 % of control.

In the case of `CC(C)(C)C1CC[N+](=C(O[B-](F)(F)F)c2ccccc2)CC1` (stereo not drawn), the T/C [9] is reported as 100 % of control and the T/C [10] is reported as 103 % of control.

`CCCCC(NC(=O)CCl)C(=O)O` (stereo not drawn) was tested, and the T/C [11] was 98 % of control, the T/C (dose: 100.0 mg/kg/injection, schedule: Q01DX009 (ip), vehicle: saline) was 95 % of control and the T/C (dose: 200.0 mg/kg/injection, schedule: Q01DX009 (ip), vehicle: saline) was 98 % of control.

With `C=C(C)[Se]c1ccccc1` the T/C (dose: 50.0 mg/kg/injection, schedule: Q01DX009 (ip), vehicle: saline with Tween-80) was 100 % of control and 118 % of control and the T/C (dose: 100.0 mg/kg/injection, schedule: Q01DX009 (ip), vehicle: saline with Tween-80) was 101 % of control and 121 % of control.

In the case of `O/N=C/c1ccccn1`, the T/C [1] is reported as 92 % of control, the T/C [2] is reported as 101 % of control and the T/C [3] is reported as 100 % of control.

In the case of `CCOC(=O)C(C)(C)CN1COCC1(C)C`, the T/C (dose: 50.0 mg/kg/injection, schedule: Q01DX001 (ip), vehicle: saline with Tween-80) is reported as 104 % of control, the T/C (dose: 100.0 mg/kg/injection, schedule: Q01DX001 (ip), vehicle: saline with Tween-80) is reported as 104 % of control and the T/C (dose: 200.0 mg/kg/injection, schedule: Q01DX001 (ip), vehicle: saline with Tween-80) is reported as 118 % of control.

For `COc1cccc2c1C(=O)c1c(O)c3c(c(O)c1C2=O)CC(O)(C(C)=O)CC3OC1CC(NCC2(O)OCC(O)C2O)C(O)C(C)O1` (stereo not drawn), the T/C (dose: 3.13 mg/kg/injection, schedule: Q04DX003 (ip), vehicle: water) was 103 % of control, the T/C (dose: 6.25 mg/kg/injection, schedule: Q04DX003 (ip), vehicle: water) was 100 % of control and the T/C (dose: 12.5 mg/kg/injection, schedule: Q04DX003 (ip), vehicle: water) was 117 % of control. The T/C (dose: 25.0 mg/kg/injection, schedule: Q04DX003 (ip), vehicle: water) was 112 % of control and 113 % of control, the T/C (dose: 50.0 mg/kg/injection, schedule: Q04DX003 (ip), vehicle: water) was 122 % of control and the T/C (dose: 100.0 mg/kg/injection, schedule: Q04DX003 (ip), vehicle: water) was 182 % of control. The T/C (dose: 200.0 mg/kg/injection, schedule: Q04DX003 (ip), vehicle: water) was 108 % of control.

For `O=c1[nH]c2cc(Cl)ccc2nc1/C=C(\O)c1ccco1`, the T/C [9] was 102 % of control, the T/C [10] was 94 % of control and the T/C (dose: 240.0 mg/kg/injection, schedule: Q01DX005 (ip), vehicle: saline with Tween-80) was 102 % of control.

`CCCN=C(C)NO` was tested, and the T/C (dose: 50.0 mg/kg/injection, schedule: Q01DX005 (ip), vehicle: saline) was 98 % of control, the T/C (dose: 100.0 mg/kg/injection, schedule: Q01DX005 (ip), vehicle: saline) was 101 % of control and the T/C (dose: 200.0 mg/kg/injection, schedule: Q01DX005 (ip), vehicle: saline) was 102 % of control.

In the case of `CC12CCN=C1c1ccc3cc(O)ccc3c1CC2` (stereo not drawn), the T/C (dose: 100.0 mg/kg/injection, schedule: Q01DX001 (sc), vehicle: steriod suspending solution) is reported as 104 % of control, the T/C (dose: 200.0 mg/kg/injection, schedule: Q01DX001 (sc), vehicle: steriod suspending solution) is reported as 118 % of control and the T/C (dose: 400.0 mg/kg/injection, schedule: Q01DX001 (sc), vehicle: steriod suspending solution) is reported as 100 % of control.

With `CCCCCCC(=O)CC(SCCN)c1ccccc1Cl` (stereo not drawn) the T/C (dose: 3.75 mg/kg/injection, schedule: Q01DX005 (ip), vehicle: saline) was 100 % of control, the T/C (dose: 7.5 mg/kg/injection, schedule: Q01DX005 (ip), vehicle: saline) was 96 % of control and the T/C (dose: 15.0 mg/kg/injection, schedule: Q01DX005 (ip), vehicle: saline) was 97 % of control. The T/C (dose: 30.0 mg/kg/injection, schedule: Q01DX005 (ip), vehicle: saline) was 99 % of control.

In the case of `CN1CCCC1=O`, the T/C [11] is reported as 95 % of control.

`COc1ccc(NCCc2ccc(-n3ncc(C(=O)NN)c3N)nn2)cc1OC` was tested, and the T/C (dose: 75.0 mg/kg/injection, schedule: Q01DX005 (ip), vehicle: other) was 93 % of control, the T/C (dose: 150.0 mg/kg/injection, schedule: Q01DX005 (ip), vehicle: other) was 93 % of control and the T/C (dose: 250.0 mg/kg/injection, schedule: Q01DX005 (oral), vehicle: water) was 100 % of control. For the same molecule, the T/C (dose: 500.0 mg/kg/injection, schedule: Q01DX005 (oral), vehicle: water) was 107 % of control and the T/C (dose: 1000.0 mg/kg/injection, schedule: Q01DX005 (oral), vehicle: water) was 110 % of control.

`CCOC(=O)C[N+]1(C)C2CCC1CC(OC(=O)C(CO)c1ccccc1)C2` (stereo not drawn) was tested, and the T/C (dose: 12.5 mg/kg/injection, schedule: Q01DX009 (ip), vehicle: saline) was 100 % of control and the T/C (dose: 25.0 mg/kg/injection, schedule: Q01DX009 (ip), vehicle: saline) was 100 % of control.

With `O=C1CCS(=O)(=O)C(=O)N1c1ccccc1` the T/C [4] was 100 % of control, the T/C [5] was 97 % of control and the T/C [12] was 87 % of control.

In the case of `CCCCCCC(=O)C(=O)c1ccc(O)cc1O`, the T/C [4] is reported as 113 % of control, the T/C [5] is reported as 109 % of control and the T/C [12] is reported as 109 % of control.

In the case of `CCCCCC(=O)Nc1ncc([N+](=O)[O-])s1`, the T/C [4] is reported as 116 % of control, the T/C [5] is reported as 113 % of control and the T/C [12] is reported as 98 % of control.

In the case of `O=c1[nH]cnc2ncnn12`, the T/C (dose: 25.0 mg/kg/injection, schedule: Q01DX009 (ip), vehicle: suspension in saline) is reported as 97 % of control, the T/C (dose: 50.0 mg/kg/injection, schedule: Q01DX009 (ip), vehicle: suspension in saline) is reported as 93 % of control and the T/C (dose: 200.0 mg/kg/injection, schedule: Q01DX009 (ip), vehicle: suspension in saline) is reported as 90 % of control.

`COc1cccc2c(NCCCN(C)CCCNc3c4ccccc4nc4c(OC)cccc34)c3ccccc3nc12` was tested, and the T/C (dose: 1.25 mg/kg/injection, schedule: Q01DX009 (ip), vehicle: water) was 120 % of control, the T/C (dose: 2.5 mg/kg/injection, schedule: Q01DX009 (ip), vehicle: water) was 124 % of control and the T/C (dose: 10.0 mg/kg/injection, schedule: Q01DX009 (ip), vehicle: water) was 163 % of control.

With `CCCCN(CCCC)P(=O)(N1CC1)N1CC1` the T/C (dose: 6.25 mg/kg/injection, schedule: Q01DX009 (ip), vehicle: saline) was 118 % of control, the T/C (dose: 16.5 mg/kg/injection, schedule: Q01DX009 (ip), vehicle: saline) was 175 % of control and the T/C (dose: 100.0 mg/kg/injection, schedule: Q04DX003 (ip), vehicle: saline) was 90 % of control.

Source: PubChem BioAssay AID330 (DTP/NCI, 2004)
